Each structure is given as a SMILES string. A value given as a limit tells only on which side of the number the result lay.

In the first assay the target is T1, Ceramide glucosyltransferase (Mus musculus, UniProt O88693).
T1 sequence (O88693 whole entry): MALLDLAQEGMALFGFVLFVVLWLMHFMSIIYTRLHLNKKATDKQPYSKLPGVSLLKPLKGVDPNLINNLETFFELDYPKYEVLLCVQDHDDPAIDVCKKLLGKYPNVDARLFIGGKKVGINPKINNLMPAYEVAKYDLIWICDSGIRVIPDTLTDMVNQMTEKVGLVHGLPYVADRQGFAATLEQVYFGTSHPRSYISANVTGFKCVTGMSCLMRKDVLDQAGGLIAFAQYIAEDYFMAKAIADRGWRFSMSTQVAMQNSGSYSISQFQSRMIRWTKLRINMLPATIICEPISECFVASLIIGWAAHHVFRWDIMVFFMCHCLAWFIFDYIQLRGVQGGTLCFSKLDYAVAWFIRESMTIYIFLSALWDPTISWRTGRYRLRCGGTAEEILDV
The assay is described as follows: Inhibition of glucosylceramide synthase in mouse RAW cells preincubated for 15 mins followed by substrate addition and measured after 1 hr by fluorescence scanner. The format is cell-based.
As for `CCCCN1CCC[C@H](O)[C@H]1CO`, the IC50 was > 10 µM.

On to `CCCCN1CCC[C@@H](O)[C@H]1CO`, for which the IC50 is > 10 µM.

Regarding `OC[C@@H]1NCC=C[C@@H]1O`, the IC50 was > 10 µM.

Target in a further assay: not listed separately
Put plainly: Inhibition of recombinant glucosylceramidase 1 using 4-methylumbelliferyl-B-glucoside as substrate by fluorimetric analysis.
With `CCCCN1CCC[C@H](O)[C@H]1CO`, the IC50 is > 1 mM.

As for `CCCCN1CCC[C@@H](O)[C@H]1CO`, the IC50 is > 1 mM.

With `OC[C@@H]1NCC=C[C@@H]1O`, the IC50 is > 1 mM.

Another assay has as its target T2, Beta-glucosidase (Homo sapiens, UniProt Q9HCG7).
T2 sequence (Q9HCG7 whole entry): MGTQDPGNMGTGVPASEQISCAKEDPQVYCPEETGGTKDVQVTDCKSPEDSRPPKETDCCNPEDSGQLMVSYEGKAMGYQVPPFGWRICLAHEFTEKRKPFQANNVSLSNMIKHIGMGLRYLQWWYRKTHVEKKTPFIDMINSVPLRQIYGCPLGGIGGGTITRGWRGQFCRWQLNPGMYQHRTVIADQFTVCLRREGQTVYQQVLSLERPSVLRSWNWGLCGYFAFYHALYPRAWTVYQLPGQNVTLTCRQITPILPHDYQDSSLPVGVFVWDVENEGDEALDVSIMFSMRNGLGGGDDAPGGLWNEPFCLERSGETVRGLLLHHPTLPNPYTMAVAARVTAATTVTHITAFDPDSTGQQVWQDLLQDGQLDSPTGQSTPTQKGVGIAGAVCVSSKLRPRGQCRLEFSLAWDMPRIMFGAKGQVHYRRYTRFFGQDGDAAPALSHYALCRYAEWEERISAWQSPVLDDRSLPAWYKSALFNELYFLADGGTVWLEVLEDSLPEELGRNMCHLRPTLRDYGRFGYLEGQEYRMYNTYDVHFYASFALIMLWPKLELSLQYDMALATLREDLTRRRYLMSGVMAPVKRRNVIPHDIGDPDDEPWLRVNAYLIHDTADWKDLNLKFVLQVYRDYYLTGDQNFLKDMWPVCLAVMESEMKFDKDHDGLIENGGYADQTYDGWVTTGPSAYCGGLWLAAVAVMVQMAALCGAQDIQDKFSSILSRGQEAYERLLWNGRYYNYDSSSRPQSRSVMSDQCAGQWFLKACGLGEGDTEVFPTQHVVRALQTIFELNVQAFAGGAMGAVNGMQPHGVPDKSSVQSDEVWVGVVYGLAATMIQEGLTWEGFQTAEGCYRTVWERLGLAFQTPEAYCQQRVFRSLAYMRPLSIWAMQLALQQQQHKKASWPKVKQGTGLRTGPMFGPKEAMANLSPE
Put plainly: Inhibition of glucosylceramidase 2 from spleen of patient with gaucher's disease by fluorimetric analysis.
In the case of `CCCCN1CCC[C@H](O)[C@H]1CO`, the IC50 was > 1 mM.

With `CCCCN1CCC[C@@H](O)[C@H]1CO`, the IC50 was > 1 mM.

In the case of `OC[C@@H]1NCC=C[C@@H]1O`, the IC50 was > 1 mM.
